# Assay results: ChEMBL document CHEMBL1136286, “Unexpected enhancement of thrombin inhibitor potency with o-aminoalkylbenzylamides in the P1 position” (Bioorg Med Chem Lett, 2003)
# Legend:
# Prothrombin = Prothrombin (Homo sapiens, UniProt P00734); assay: Inhibitory constant evaluated against thrombin (Factor IIa)
# Serine protease 1 [1] = target: T1, Serine protease 1 (Homo sapiens, UniProt P07477); assay: Ratio of inhibitory constant evaluated against trypsin to that of thrombin (Factor IIa)
# T1 sequence (P07477 whole entry): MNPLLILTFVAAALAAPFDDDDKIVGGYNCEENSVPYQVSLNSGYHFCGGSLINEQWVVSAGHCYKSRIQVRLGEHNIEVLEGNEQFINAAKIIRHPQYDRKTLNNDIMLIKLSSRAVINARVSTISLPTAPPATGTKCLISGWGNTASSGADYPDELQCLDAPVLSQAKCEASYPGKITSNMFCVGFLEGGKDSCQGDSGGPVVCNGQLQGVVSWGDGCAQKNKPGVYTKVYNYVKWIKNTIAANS
# Serine protease 1 [2] = target: T1, Serine protease 1; assay: Inhibitory constant evaluated against trypsin
# Homo sapiens = species: Homo sapiens; assay: Concentration needed to double the activated partial thromboplastin time in human plasma; type: functional
SMILES,Ki (Prothrombin) [nM],Selectivity ratio (Serine protease 1 [1]),Ki (Serine protease 1 [2]) [µM],2x APTT (Homo sapiens) [µM]
Cc1cnc(NCCc2ccccc2)c(=O)n1CC(=O)NCc1cc(Cl)ccc1CN,0.13,12300,1.6,0.41
NCc1ccccc1CNC(=O)[C@@H]1CCCN1C(=O)[C@H](N)Cc1ccccc1,313,339,106,
Cc1ccc(NS(=O)(=O)Cc2ccccc2)c(=O)n1CC(=O)NCc1ccccc1,,3580,466,
CN(C(=O)C(Cc1ccc(CN)cc1)NS(=O)(=O)c1ccc2c(c1)CCCCC2)C1CCCC1 (configuration not stated),3.3,,6.3,
Cc1ccc(NS(=O)(=O)Cc2ccccc2)c(=O)n1CC(=O)NCc1ccccc1CN,5.2,12900,67,0.44
Cc1nc(N)ccc1CNC(=O)Cn1c(C)cnc(NCCc2ccccc2)c1=O [L-375378],,1910,,0.41
N[C@H](Cc1ccccc1)C(=O)N1CCC[C@H]1C(=O)NCc1ccccc1,,> 217,> 1000,
NCCc1ccc(Cl)cc1CNC(=O)[C@@H]1CCCN1C(=O)[C@H](N)Cc1ccccc1,62,4060,252,
Cc1cc(CNC(=O)[C@@H]2CCCN2C(=O)[C@H](N)C(c2ccccc2)c2ccccc2)c(C)cc1CN,39,,,
N[C@H](Cc1ccccc1)C(=O)N1CCC[C@H]1C(=O)NCc1cccc(Cl)c1,250,356,89,
NCc1ccc(Cl)cc1CNC(=O)Cn1c(Cl)cnc(NCC(F)(F)c2cccc[n+]2[O-])c1=O,0.0034,,0.415,0.13
Cc1ccc(NS(=O)(=O)Cc2ccccc2)c(=O)n1CC(=O)NCc1cccc(Cl)c1,7.1,2790,20,2.8

# Further lines, with some results ahead:
Ki (Prothrombin) [nM],Selectivity ratio (Serine protease 1 [1]),Ki (Serine protease 1 [2]) [µM],SMILES,2x APTT (Homo sapiens) [µM]
490,46.9,23,Cc1ccc(NS(=O)(=O)Cc2ccccc2)c(=O)n1CC(=O)NCc1cccc(CN)c1,
49,26.5,1.3,Cc1ccc(NS(=O)(=O)Cc2ccccc2)c(=O)n1CC(=O)NCc1ccc(CN)cc1,
0.05,740000,37,Cc1ccc(NS(=O)(=O)Cc2ccccc2)c(=O)n1CC(=O)NCc1cc(Cl)ccc1CCN,0.18
470,> 2130,> 1000,Cc1ccc(NS(=O)(=O)Cc2ccccc2)c(=O)n1CC(=O)NCc1ccccc1N,
0.046,40200,1.85,Cc1ccc(NS(=O)(=O)Cc2ccccc2)c(=O)n1CC(=O)NCc1cc(Cl)ccc1CN,0.16
3.3,1910,6.2,NCc1ccc(Cl)cc1CNC(=O)[C@@H]1CCCN1C(=O)[C@H](N)Cc1ccccc1,0.34
4.1,107000,437,Cc1ccc(NS(=O)(=O)Cc2ccccc2)c(=O)n1CC(=O)NCc1ccccc1CCN,0.53
,6400,,Cc1nc(N)ccc1CNC(=O)Cn1c(C)ccc(NS(=O)(=O)Cc2ccccc2)c1=O [L-374087],0.22
6.6,,14.2,COc1ccc2cc(S(=O)(=O)NC(Cc3ccc(CN)cc3)C(=O)N(C)C3CCCC3)ccc2c1 (configuration not stated),
